{
  "source": "BindingDB's records for doi:10.7270/Q2D50KGC",
  "about": "(Burnham Center For Chemical Genomics, 2011)",
  "data": [
    {"target": "T1, Endoribonuclease toxin MazF (Escherichia coli (strain K12), UniProt P0AE70)", "T1 sequence (P0AE70 whole entry)": "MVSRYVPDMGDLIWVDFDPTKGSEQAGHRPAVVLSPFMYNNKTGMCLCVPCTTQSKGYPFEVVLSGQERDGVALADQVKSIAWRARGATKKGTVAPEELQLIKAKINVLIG", "experiment": "MazEF toxin-antitoxin RNase activation – biochemical, fluorescence, single-stranded RNA substrate, SAR follow-up (AID 588603)", "units": {"EC50": "µM"}, "values": [
      {"molecule": "C=CCOc1cccc(C2C(C(=O)c3ccc(C)o3)C(=O)C(=O)N2c2nccs2)c1", "note": "(stereo not drawn) [3-(5-methylfuran-2-yl)carbonyl-4-oxidanyl-2-(3-prop-2-enoxyphenyl)-1-(1,3-thiazol-2-yl)-2H-pyrrol-5-one]", "EC50": 22.3},
      {"molecule": "N#Cc1ccc(-n2c(O)c3[nH][nH]c(C(=O)c4ccc5ccccc5n4)c-3c2=O)cc1", "note": "[4-[(3aS,6aS)-4,6-dioxo-3-[oxo(2-quinolinyl)methyl]-3a,6a-dihydro-1H-pyrrolo[3,4-c]pyrazol-5-yl]benzonitrile]", "EC50": 7.74},
      {"molecule": "O=C(c1ccc2ccccc2n1)c1[nH][nH]c2c(O)n(-c3cccc(F)c3)c(=O)c1-2", "note": "[(3aS,6aS)-5-(3-fluorophenyl)-3-[oxo(2-quinolinyl)methyl]-3a,6a-dihydro-1H-pyrrolo[3,4-c]pyrazole-4,6-dione]", "EC50": 24.4}
    ]}
  ]
}
